Where two headings read alike, the source gives them in different places.
Columns and labels:
[1] = Hepatic impairment study: atogepant plasma PK; assay type: in vivo, human; settings: for AUC(0-t) / AUC(0-inf) / Cmax / Tmax / half-life / Vd/F: human, plasma, 60 mg; for Vd/F: read-out: Vz/F
Protocol: A multicenter, non-randomized, open-label, parallel-group, single-dose study was carried out to evaluate the PK, safety, and tolerability profiles of atogepant in participants with impaired hepatic function and matched healthy participants with normal hepatic function after a single 60-mg oral dose of atogepant. The primary outcome measures were PK parameters of atogepant derived from plasma concentrations. Safety measures were AEs, clinical laboratory determinations, vital sign parameters, electrocardiographic results, and physical examination findings. […] PK blood samples were collected for up to 72 hours after dose administration. The total duration of study participation for each participant was 5 days (Day −1 to Day 4), excluding the screening visit. […] Participants with moderate hepatic impairment were enrolled after 4 participants with mild hepatic impairment completed the study; participants with severe hepatic impairment were enrolled after 4 participants with moderate hepatic impairment completed the study. Participants with normal hepatic function were recruited after all patients with hepatic impairment were enrolled in the study. The safety and tolerability of atogepant was established in each group before the subsequent group was enrolled. Participants were enrolled into four groups: Group I (Mild Hepatic Impairment); Group II (Moderate Hepatic Impairment); Group III (Severe Hepatic Impairment); and Group IV (Normal Hepatic Impairment). Participants with normal hepatic function were recruited after the participants with hepatic impairment were enrolled in the study so that participants could be matched as closely as possible by age range, weight range, and gender among groups. Participants were matched specifically according to rage range, not exceeding 5 years between the means of the normal group and the 3 impaired hepatic function groups combined; weight range, which deviated <20% between the means of the normal group and the 3 impaired hepatic function groups combined; and gender, as much as possible to match the ratio of the normal group to the 3 impaired hepatic function groups combined. Participants received a single, oral, 60 mg tablet of atogepant. Each participant received only one dose of the study intervention. Participants received the atogepant tablet with 240 mL of water at the study center under fasted conditions. Following dose administration, participants continued their fast and remained seated upright and awake for 4 hours. Sampling for atogepant plasma concentrations was done starting on Day 1 at 0 hour (predose) and at 0.5, 1, 1.5, 2, 3, 4, 6, 8, 12, 16, 24, 36, 48, and 72 hours post dose.

[2] = Atogepant-topiramate interaction study, cohort 1: atogepant steady-state PK; assay type: in vivo, human; settings: for AUC / Cmax / Tmax: both sexes, human, plasma; for Tmax: read-out: Tmax,ss (median)
Protocol: The duration of the study was 25 days (±2 days), which included day −1 through the follow-up visit and excluded the screening period. The screening period was up to 21 days before day 1 and the intervention period was a total of 19 days, at which point the end of dosing visit was conducted. […] Clinical laboratory tests were performed at the follow-up visit, which was conducted on day 24 (7 [±2] days after the last dose of study medication. […] The primary endpoints were area under the plasma concentration-time curve during dosing interval at steady state (AUC0-tau,ss) and maximum plasma drug concentration at steady state (Cmax,ss) of atogepant and topiramate when coadministered and when administered alone. Additional PK parameters included time of maximum plasma drug concentration at steady state (Tmax,ss), average plasma drug concentration at steady state (Cavg,ss), and minimum plasma drug concentration at steady state (Cmin,ss) of topiramate and atogepant when coadministered and when administered alone.

[3] = po, mild hepatic impairment, single 60 mg oral dose
[4] = po, moderate hepatic impairment, single 60 mg oral dose
[5] = po, normal hepatic function, single 60 mg oral dose
[6] = po, severe hepatic impairment, single 60 mg oral dose
[7] = mild hepatic impairment vs normal hepatic function
[8] = mild hepatic impairment, single 60 mg oral dose
[9] = moderate hepatic impairment vs normal hepatic function
[10] = moderate hepatic impairment, single 60 mg oral dose
[11] = normal hepatic function, single 60 mg oral dose
[12] = severe hepatic impairment vs normal hepatic function
[13] = severe hepatic impairment, single 60 mg oral dose
[14] = atogepant 60 mg QD + topiramate 100 mg BID, day 17
[15] = atogepant 60 mg QD alone, day 7

C[C@@H]1[C@H](c2c(F)ccc(F)c2F)C[C@H](NC(=O)c2cnc3c(c2)C[C@@]2(C3)C(=O)Nc3ncccc32)C(=O)N1CC(F)(F)F [atogepant, (3′S)-N-[(3S,5S,6R)-6-methyl-2-oxo-1-(2,2,2-trifluoroethyl)-5-(2,3,6-trifluorophenyl)piperidin-3-yl]-2′-oxo-1′,2′,5,7-tetrahydrospiro[cyclopenta[b]pyridine-6,3′-pyrrolo[2,3-b]pyridine]-3-carboxamide]
AUC(0-t) ([1]; oral, mild hepatic impairment, read-out: AUC0-t Geometric Least Squares Mean, Test): 3250 ng·h/mL
AUC(0-inf) ([1]; oral, mild hepatic impairment, read-out: AUC0-∞ Geometric Least Squares Mean, Test): 3270 ng·h/mL
Cmax ([1]; oral, mild hepatic impairment, read-out: Cmax Geometric Least Squares Mean, Test): 587 ng/mL
AUC(0-t) ([1]; oral, moderate hepatic impairment, read-out: AUC0-t Geometric Least Squares Mean, Test): 2980 ng·h/mL
AUC(0-inf) ([1]; oral, moderate hepatic impairment, read-out: AUC0-∞ Geometric Least Squares Mean, Test): 3030 ng·h/mL
Cmax ([1]; oral, moderate hepatic impairment, read-out: Cmax Geometric Least Squares Mean, Test): 475 ng/mL
AUC(0-t) ([1]; oral, normal hepatic function, read-out: AUC0-t Geometric Least Squares Mean, Reference): 2610 ng·h/mL
AUC(0-inf) ([1]; oral, normal hepatic function, read-out: AUC0-∞ Geometric Least Squares Mean, Reference): 2630 ng·h/mL
Cmax ([1]; oral, normal hepatic function, read-out: Cmax Geometric Least Squares Mean, Reference): 539 ng/mL
AUC(0-t) ([1]; oral, severe hepatic impairment, read-out: AUC0-t Geometric Least Squares Mean, Test): 3600 ng·h/mL
AUC(0-inf) ([1]; oral, severe hepatic impairment, read-out: AUC0-∞ Geometric Least Squares Mean, Test): 3630 ng·h/mL
Cmax ([1]; oral, severe hepatic impairment, read-out: Cmax Geometric Least Squares Mean, Test): 515 ng/mL
Tmax ([1]; po, mild hepatic impairment vs normal hepatic function, read-out: difference in median Tmax): 0 h
half-life [1, 3]: 8.7 ± 4.06 h
AUC(0-t) ([1]; po, mild hepatic impairment, single 60 mg oral dose, read-out: AUC0-t): 3470 ± 1420 ng·h/mL
AUC(0-inf) ([1]; po, mild hepatic impairment, single 60 mg oral dose, read-out: AUC0-∞): 3500 ± 1430 ng·h/mL
Cmax ([1]; po, mild hepatic impairment, single 60 mg oral dose, read-out: Cmax): 666 ± 372 ng/mL
Tmax ([1]; po, mild hepatic impairment, single 60 mg oral dose, read-out: Tmax, median (range)): 1.76 h
Vd/F [1, 3]: 249 ± 161 L
Tmax ([1]; po, moderate hepatic impairment vs normal hepatic function, read-out: difference in median Tmax): 0.25 h
half-life [1, 4]: 11.9 ± 7.6 h
AUC(0-t) ([1]; po, moderate hepatic impairment, single 60 mg oral dose, read-out: AUC0-t): 3270 ± 1690 ng·h/mL
AUC(0-inf) ([1]; po, moderate hepatic impairment, single 60 mg oral dose, read-out: AUC0-∞): 3310 ± 1680 ng·h/mL
Cmax ([1]; po, moderate hepatic impairment, single 60 mg oral dose, read-out: Cmax): 529 ± 227 ng/mL
Tmax ([1]; po, moderate hepatic impairment, single 60 mg oral dose, read-out: Tmax, median (range)): 1.5 h
Vd/F [1, 4]: 404 ± 406 L
half-life [1, 5]: 9.4 ± 3.24 h
AUC(0-t) ([1]; po, normal hepatic function, single 60 mg oral dose, read-out: AUC0-t): 2760 ± 919 ng·h/mL
AUC(0-inf) ([1]; po, normal hepatic function, single 60 mg oral dose, read-out: AUC0-∞): 2780 ± 924 ng·h/mL
Cmax ([1]; po, normal hepatic function, single 60 mg oral dose, read-out: Cmax): 589 ± 248 ng/mL
Tmax ([1]; po, normal hepatic function, single 60 mg oral dose, read-out: Tmax, median (range)): 1.75 h
Vd/F [1, 5]: 301 ± 77 L
Tmax ([1]; po, severe hepatic impairment vs normal hepatic function, read-out: difference in median Tmax): 0.75 h
half-life [1, 6]: 7.54 ± 2.95 h
AUC(0-t) ([1]; po, severe hepatic impairment, single 60 mg oral dose, read-out: AUC0-t): 3800 ± 1400 ng·h/mL
AUC(0-inf) ([1]; po, severe hepatic impairment, single 60 mg oral dose, read-out: AUC0-∞): 3840 ± 1440 ng·h/mL
Cmax ([1]; po, severe hepatic impairment, single 60 mg oral dose, read-out: Cmax): 525 ± 197 ng/mL
Tmax ([1]; po, severe hepatic impairment, single 60 mg oral dose, read-out: Tmax, median (range)): 1 h
Vd/F [1, 6]: 177 ± 47.5 L
higher AUC (total atogepant exposure increase) ([1]; mild hepatic impairment (Child-Pugh Class A) vs normal hepatic function): 24%
AUC0-t Ratio of Geometric Means Test/Reference [1, 7]: 124.40
AUC0-∞ Ratio of Geometric Means Test/Reference [1, 7]: 124.31
Cmax Ratio of Geometric Means Test/Reference [1, 7]: 108.97
change in maximum plasma concentration [1, 7]: +9%
higher Cmax [1, 7]: 9%
AUC % [1, 8]: 0.73 ± 0.42%
CL/F [1, 8]: 19.42 ± 6.60 L/h
λz [1, 8]: 0.0906 ± 0.0300 h⁻¹
change in the PK of atogepant ([1]; mild, moderate, or severe hepatic impairment): no clinically relevant change
higher AUC (total atogepant exposure increase) ([1]; moderate hepatic impairment (Child-Pugh Class B) vs normal hepatic function): 15%
AUC0-t Ratio of Geometric Means Test/Reference [1, 9]: 113.96
AUC0-∞ Ratio of Geometric Means Test/Reference [1, 9]: 115.00
Cmax Ratio of Geometric Means Test/Reference [1, 9]: 88.17
change in maximum plasma concentration [1, 9]: −12%
lower Cmax [1, 9]: 12%
AUC % [1, 10]: 1.70 ± 1.44%
CL/F [1, 10]: 21.33 ± 8.06 L/h
λz [1, 10]: 0.0781 ± 0.0431 h⁻¹
AUC % [1, 11]: 0.81 ± 0.23%
CL/F [1, 11]: 24.20 ± 9.42 L/h
λz [1, 11]: 0.0819 ± 0.0289 h⁻¹
increase in AUC (total atogepant exposure increase) ([1]; severe hepatic impairment (Child-Pugh Class C) vs normal hepatic function): 38%
AUC0-t Ratio of Geometric Means Test/Reference [1, 12]: 137.88
AUC0-∞ Ratio of Geometric Means Test/Reference [1, 12]: 137.97
Cmax Ratio of Geometric Means Test/Reference [1, 12]: 95.71
change in maximum plasma concentration [1, 12]: −4%
decrease in Cmax [1, 12]: 4%
AUC % [1, 13]: 0.87 ± 0.65%
CL/F [1, 13]: 17.33 ± 5.40 L/h
λz [1, 13]: 0.0998 ± 0.0242 h⁻¹
Cavg,ss [2, 14]: 95.8 ng/mL
Cmin,ss [2, 14]: 6.3 ng/mL
Cavg,ss [2, 15]: 125.6 ng/mL
Cmin,ss [2, 15]: 10.2 ng/mL
AUC ([2]; 60 mg, Atogepant Alone, read-out: AUC0-tau,ss Geometric LSM): 2720 ng·h/mL
Cmax ([2]; 60 mg, Atogepant Alone, read-out: Cmax,ss Geometric LSM): 535 ng/mL
AUC ([2]; 60 mg, atogepant 60 mg QD alone, day 7, read-out: AUC0-tau,ss): 3020 ng·h/mL
Cmax ([2]; 60 mg, atogepant 60 mg QD alone, day 7, read-out: Cmax,ss): 626 ng/mL
AUC ([2]; Atogepant and Topiramate, read-out: AUC0-tau,ss Geometric LSM): 2030 ng·h/mL
Cmax ([2]; Atogepant and Topiramate, read-out: Cmax,ss Geometric LSM): 406 ng/mL
AUC ([2]; atogepant 60 mg QD + topiramate 100 mg BID, day 17, read-out: AUC0-tau,ss): 2300 ng·h/mL
Cmax ([2]; atogepant 60 mg QD + topiramate 100 mg BID, day 17, read-out: Cmax,ss): 491 ng/mL
Tmax [2, 14]: 2 h
Tmax [2, 15]: 2 h
reduction of atogepant AUC0-tau,ss ([2]; coadministered with topiramate): 25%
reduction of atogepant Cmax,ss ([2]; coadministered with topiramate): 24%
